Like-named read-outs stand apart in the source and are kept apart here.
Tests used:
[1] = molecular target: T1, hCA IX (Homo sapiens, UniProt Q16790); assay: stopped-flow CO2 hydrase assay; type: biochemical
T1 construct: gene CA9

[2] = molecular target: T2, hCA I (Homo sapiens, UniProt P00915); assay: stopped-flow CO2 hydrase assay; type: biochemical
T2 construct: gene CA1
Description: stopped-flow CO2 hydrase assay on hCA I

[3] = molecular target: T3, hCA XII (Homo sapiens, UniProt O43570); assay: stopped-flow CO2 hydrase assay; type: biochemical
T3 construct: gene CA12

[4] = molecular target: T4, hCA II (Homo sapiens, UniProt P00918); assay: stopped-flow CO2 hydrase assay; type: biochemical
T4 construct: gene CA2
Description: stopped-flow CO2 hydrase assay on hCA II

[5] = stopped-flow CO2 hydrase assay; type: biochemical, Homo sapiens; conditions: read-out: KI (nM)^a / hCA I
[6] = stopped-flow CO2 hydrase assay; type: biochemical, Homo sapiens; conditions: read-out: KI (nM)^a / hCA I; remark: listed apart in the source

T3 sequence (O43570 25-354): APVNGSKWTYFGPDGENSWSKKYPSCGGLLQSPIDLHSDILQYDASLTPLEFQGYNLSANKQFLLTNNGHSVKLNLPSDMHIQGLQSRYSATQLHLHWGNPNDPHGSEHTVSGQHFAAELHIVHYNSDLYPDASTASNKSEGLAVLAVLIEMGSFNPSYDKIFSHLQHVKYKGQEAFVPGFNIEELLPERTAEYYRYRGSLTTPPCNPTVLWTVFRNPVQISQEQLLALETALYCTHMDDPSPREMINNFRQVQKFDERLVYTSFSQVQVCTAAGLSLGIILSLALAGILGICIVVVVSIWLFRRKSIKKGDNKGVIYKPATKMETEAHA
T2 sequence (P00915 2-261): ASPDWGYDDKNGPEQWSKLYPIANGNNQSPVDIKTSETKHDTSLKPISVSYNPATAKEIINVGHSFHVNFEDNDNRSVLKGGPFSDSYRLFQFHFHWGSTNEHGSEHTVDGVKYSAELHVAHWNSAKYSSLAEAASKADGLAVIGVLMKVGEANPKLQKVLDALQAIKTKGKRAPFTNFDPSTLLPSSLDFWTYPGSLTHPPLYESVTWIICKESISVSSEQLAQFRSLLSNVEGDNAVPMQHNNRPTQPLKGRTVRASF

| Compound | Ki ([1]; read-out: KI (nM)^a / hCA IX) [nM] | Ki [2] [nM] | Ki [3] [nM] | Ki [4] [nM] | Ki [5] [nM] | Ki ([1]; read-out: KI (nM)^a / hCA I) [nM] | Ki [6] [nM] |
| --- | --- | --- | --- | --- | --- | --- | --- |
| NS(=O)(=O)c1ccc(CNC(=O)Nc2nc3ccccc3s2)cc1 [compound 10, 10] | 58.8 | 946 | 51.2 | 204 |  |  |  |
| NS(=O)(=O)c1ccccc1NC(=O)Nc1nc2ccccc2s1 [8a] | 65.3 | 12600 | 41.2 | 785 |  |  |  |
| Cc1noc(NS(=O)(=O)c2ccc(NC(=O)Nc3nc4ccccc4s3)cc2)c1C [16b] |  | > 100000 |  |  | > 100000 | > 100000 | > 100000 |
| O=C(Nc1nc2ccccc2s1)Nc1ccccc1C(=O)O [14a] | 44600 | 68100 | 39900 | 75900 |  |  |  |
| NS(=O)(=O)c1cccc(NC(=O)Nc2nc3ccccc3s2)c1 [8b] | 48.9 | 4040 | 57.5 | 653 |  |  |  |
| O=C(Nc1ccc(S(=O)(=O)Nc2nccs2)cc1)Nc1nc2ccccc2s1 [16a] | 56100 | > 100000 | 32500 |  | > 100000 |  |  |
| O=C(Nc1ccc(C(=O)O)cc1)Nc1nc2ccccc2s1 [14c] | 2410 | 11800 | 8540 | 9470 |  |  |  |
| O=C(Nc1cccc(C(=O)O)c1)Nc1nc2ccccc2s1 [14b] | 16300 | 82800 | 9140 | 94100 |  |  |  |
| NS(=O)(=O)c1ccc(CCNC(=O)Nc2nc3ccccc3s2)cc1 [compound 12, 12] | 16.4 | 61.5 | 34.7 | 28.5 |  |  |  |
| NS(=O)(=O)c1ccc(NC(=O)Nc2nc3ccccc3s2)cc1 [8c] | 31.5 | 362 | 29.3 | 54.1 |  |  |  |

Reference: paper PMC9518259, “Design and synthesis of benzothiazole-based SLC-0111 analogues as new inhibitors for the cancer-associated carbonic anhydrase isoforms IX and XII” (Journal of Enzyme Inhibition and Medicinal Chemistry, 2022)
